# Tested on: H929 cells
# Test: Cell viability assay in H929 cells (Cell TiterGlo)
# Type: cell-based
# Conditions: Homo sapiens, NCI-H929, 24 hours at 37° C.
# Procedure: Cell viability assays were performed using A431 or H929 cells. A431 cells were seeded in 96-well plates at 10,000 cells/well, and after overnight incubation, treated with compounds at 2-times the final concentration to result in a dose response of 3-fold dilutions from 10 μM to 0.0005 μM (50 μL/well, 0.1% final DMSO concentration). H929 cells were seeded in 96-well plates at 10,000 cells/well and treated immediately with compounds as described above. After 24 hours at 37° C., cell viability was measured using Cell TiterGlo reagent (Promega) with a luminescence reader. Alternately, cell viability assays were performed in 384-well format. A431 cells were seeded in 384-well plates at 2500 cells/well and, after overnight incubation, treated with compounds in a dose response of 3-fold dilutions from 10 μM to 0.0005 μM (25 nL/well, 0.1% final DMSO concentration). For the H929 viability assay, 25 nL/well of the compounds was dispensed into 384-well plates in a dose response as described above and cells were immediately seeded in 384-well plates at 2500 cells/well. After 24 hours at 37° C., cell viability was measured using Cell TiterGlo reagent (Promega) with a luminescence reader.
row,SMILES,EC50 [nM]
1,"COc1ccc(F)cc1-c1ncnc2[nH]c(C3=CCN(Cc4ccc(C#N)cc4)CC3)cc12 [Example 22, 4-({4-[4-(5-fluoro-2-methoxyphenyl)-7H-pyrrolo[2,3-d]pyrimidin-6-yl]-3,6-dihydropyridin-1(2H)-yl}methyl)benzonitrile]",1100
2,"COc1ccc(F)cc1-c1ncnc2[nH]c(C3=CCN(CC(O)CO)CC3)cc12 (centres unmarked) [Example 20, 3-{4-[4-(5-fluoro-2-methoxyphenyl)-7H-pyrrolo[2,3-d]pyrimidin-6-yl]-3,6-dihydropyridin-1(2H)-yl}propane-1,2-diol]",380

# Molecular target: T1, CDK9/Cyclin T1 (Homo sapiens, UniProt P50750)
# T1 construct: purchased Carna Biosciences 04-110
# T1 sequence (P50750 whole entry): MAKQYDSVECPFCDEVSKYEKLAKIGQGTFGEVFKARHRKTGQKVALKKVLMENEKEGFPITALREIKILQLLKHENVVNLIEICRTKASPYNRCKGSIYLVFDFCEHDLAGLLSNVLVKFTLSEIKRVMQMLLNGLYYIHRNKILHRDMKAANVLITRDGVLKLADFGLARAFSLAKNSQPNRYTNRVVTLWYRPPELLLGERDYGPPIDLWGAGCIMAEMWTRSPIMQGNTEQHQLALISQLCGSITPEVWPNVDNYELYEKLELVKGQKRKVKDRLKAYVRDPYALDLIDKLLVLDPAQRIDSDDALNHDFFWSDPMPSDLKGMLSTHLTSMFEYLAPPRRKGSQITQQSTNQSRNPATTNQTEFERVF
# T1 sequence (O60563 whole entry partner): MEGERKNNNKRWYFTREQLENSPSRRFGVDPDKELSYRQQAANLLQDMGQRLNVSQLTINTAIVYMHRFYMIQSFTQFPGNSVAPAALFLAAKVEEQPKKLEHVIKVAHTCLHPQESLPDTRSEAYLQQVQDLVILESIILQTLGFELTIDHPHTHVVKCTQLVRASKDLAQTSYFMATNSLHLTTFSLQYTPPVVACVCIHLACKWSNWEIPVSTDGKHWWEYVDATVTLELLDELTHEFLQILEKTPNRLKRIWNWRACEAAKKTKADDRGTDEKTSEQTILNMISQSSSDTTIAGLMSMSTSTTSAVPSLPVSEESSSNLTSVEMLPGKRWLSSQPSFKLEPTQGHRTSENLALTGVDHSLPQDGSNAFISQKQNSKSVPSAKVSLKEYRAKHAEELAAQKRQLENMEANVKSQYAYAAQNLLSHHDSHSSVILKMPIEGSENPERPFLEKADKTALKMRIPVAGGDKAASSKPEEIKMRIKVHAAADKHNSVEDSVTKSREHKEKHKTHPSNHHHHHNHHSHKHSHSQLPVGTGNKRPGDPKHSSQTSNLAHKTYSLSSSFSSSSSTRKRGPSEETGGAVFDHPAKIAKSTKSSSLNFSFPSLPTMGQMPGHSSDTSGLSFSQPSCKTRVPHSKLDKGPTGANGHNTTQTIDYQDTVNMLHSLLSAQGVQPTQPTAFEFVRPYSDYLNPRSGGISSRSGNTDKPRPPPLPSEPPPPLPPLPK
# Test: CDK9 enzyme protocol (LANCE ULight TR-FRET kinase assay)
# Type: biochemical
# Conditions: 4 nM CDK9/Cyclin T1, 1000 μM ATP, 100 nM U-light MBP peptide, 30 minutes
# Procedure: CDK9 enzyme activities were measured using LANCE ULight TR-FRET kinase assay reagents (PerkinElmer, Waltham, Mass.). Compounds were directly added in 100% DMSO to white low volume assay plates (Perkin Elmer Proxiplate 6008289) using a Labcyte Echo acoustic dispenser. Assay reagents in serine/threonine kinase assay buffer containing 20 mM HEPES, 10 mM MgCl2, 100 mM Na3VO4, and 0.0075% Triton X-100. were added for final reaction mixture concentrations of 1000 μM ATP, 100 nM U-light MBP peptide (Perkin Elmer TRF0109M) and reaction initiated with 4 nM CDK9/Cyclin T1 (Carna Biosciences 04-110). The kinase reaction was carried out for 30 minutes before addition of stopping buffer to a final of 20 mM EDTA and 0.5 nM of LANCE Ultra Europium anti-phospho-MBP antibody (PerkinElmer TRF0201M) in LANCE detection buffer (PerkinElmer CR97-100). The reaction was equilibrated for 1 hour and the signal read in the Perkin Elmer Envision in TR-FRET mode (excitation at 320 nm and emission at 615/665 nm).
row,SMILES,IC50 [nM]
1,"CCCCOc1ccc(F)c(-c2ncnc3[nH]c(C4=CCN(S(C)(=O)=O)CC4)cc23)c1 [Example 54, 4-(5-butoxy-2-fluorophenyl)-6-[1-(methylsulfonyl)-1,2,3,6-tetrahydropyridin-4-yl]-7H-pyrrolo[2,3-d]pyrimidine]",4100
2,"COc1ccc(F)cc1-c1ncnc2[nH]c(C3=CCN(Cc4ccc(C#N)cc4)CC3)cc12 [Example 22, 4-({4-[4-(5-fluoro-2-methoxyphenyl)-7H-pyrrolo[2,3-d]pyrimidin-6-yl]-3,6-dihydropyridin-1(2H)-yl}methyl)benzonitrile]",240
3,"CCCCOc1ccc(F)cc1-c1ncnc2[nH]c(C3=CCN(S(C)(=O)=O)CC3)cc12 [Example 42, 4-(2-butoxy-5-fluorophenyl)-6-[1-(methylsulfonyl)-1,2,3,6-tetrahydropyridin-4-yl]-7H-pyrrolo[2,3-d]pyrimidine]",1200
4,"CS(=O)(=O)N1CC=C(c2cc3c(-c4cccc(OC(F)(F)F)c4)ncnc3[nH]2)CC1 [Example 56, 6-[1-(methylsulfonyl)-1,2,3,6-tetrahydropyridin-4-yl]-4-[3-(trifluoromethoxy)phenyl]-7H-pyrrolo[2,3-d]pyrimidine]",1600
5,"CCCOc1ccc(C)cc1-c1ncnc2[nH]c(C3=CCN(S(C)(=O)=O)CC3)cc12 [Example 53, 4-(5-methyl-2-propoxyphenyl)-6-[1-(methylsulfonyl)-1,2,3,6-tetrahydropyridin-4-yl]-7H-pyrrolo[2,3-d]pyrimidine]",2800
6,"CS(=O)(=O)N1CC=C(c2cc3c(-c4ccccc4OC(F)(F)F)ncnc3[nH]2)CC1 [Example 58, 6-[1-(methylsulfonyl)-1,2,3,6-tetrahydropyridin-4-yl]-4-[2-(trifluoromethoxy)phenyl]-7H-pyrrolo[2,3-d]pyrimidine]",> 12500
7,"Cc1ccc(OC(C)C)c(-c2ncnc3[nH]c(C4=CCN(S(C)(=O)=O)CC4)cc23)c1 [Example 43, 4-[5-methyl-2-(propan-2-yloxy)phenyl]-6-[1-(methylsulfonyl)-1,2,3,6-tetrahydropyridin-4-yl]-7H-pyrrolo[2,3-d]pyrimidine]",> 12500
8,"COc1ccc(C)cc1-c1ncnc2[nH]c(C3=CCN(S(C)(=O)=O)CC3)cc12 [Example 44, 4-(2-methoxy-5-methylphenyl)-6-[1-(methylsulfonyl)-1,2,3,6-tetrahydropyridin-4-yl]-7H-pyrrolo[2,3-d]pyrimidine]",610
9,"CS(=O)(=O)N1CC=C(c2cc3c(-c4cc(NCc5ccccn5)ccc4F)ncnc3[nH]2)CC1 [Example 33, 4-fluoro-3-{6-[1-(methylsulfonyl)-1,2,3,6-tetrahydropyridin-4-yl]-7H-pyrrolo[2,3-d]pyrimidin-4-yl}-N-(pyridin-2-ylmethyl)aniline]",300
10,"COc1ccc(F)cc1-c1ncnc2[nH]c(C3CCN(C)CC3)cc12 [Example 2, 4-(5-fluoro-2-methoxyphenyl)-6-(1-methylpiperidin-4-yl)-7H-pyrrolo[2,3-d]pyrimidine]",110
11,"CS(=O)(=O)Nc1cccc(-c2ncnc3[nH]c(C4=CCN(S(C)(=O)=O)CC4)cc23)c1 [Example 48, N-(3-{6-[1-(methylsulfonyl)-1,2,3,6-tetrahydropyridin-4-yl]-7H-pyrrolo[2,3-d]pyrimidin-4-yl}phenyl)methanesulfonamide]",290
12,"CCOc1ccc(F)cc1-c1ncnc2[nH]c(C3=CCNCC3)cc12 [Example 67, 4-(2-ethoxy-5-fluorophenyl)-6-(1,2,3,6-tetrahydropyridin-4-yl)-7H-pyrrolo[2,3-d]pyrimidine]",300
13,"COc1ccc(F)cc1-c1ncnc2[nH]c(C3=CCN(Cc4ccc(NC(=O)OC(C)(C)C)cc4)CC3)cc12 [Example 69, tert-butyl [4-({4-[4-(5-fluoro-2-methoxyphenyl)-7H-pyrrolo[2,3-d]pyrimidin-6-yl]-3,6-dihydropyridin-1(2H)-yl}methyl)phenyl]carbamate]",450
14,"CC(C)Oc1ccc(F)c(-c2ncnc3[nH]c(C4=CCN(S(C)(=O)=O)CC4)cc23)c1 [Example 52, 4-[2-fluoro-5-(propan-2-yloxy)phenyl]-6-[1-(methylsulfonyl)-1,2,3,6-tetrahydropyridin-4-yl]-7H-pyrrolo[2,3-d]pyrimidine]",10100
15,"CCOc1ccc(F)cc1-c1ncnc2[nH]c(C3=CCN(C(=O)OC(C)(C)C)CC3)cc12 [Example 66, tert-butyl 4-[4-(2-ethoxy-5-fluorophenyl)-7H-pyrrolo[2,3-d]pyrimidin-6-yl]-3,6-dihydropyridine-1(2H)-carboxylate]",1500
16,"CS(=O)(=O)N1CC=C(c2cc3c(-c4cc(C(F)(F)F)ccc4F)ncnc3[nH]2)CC1 [Example 51, 4-[2-fluoro-5-(trifluoromethyl)phenyl]-6-[1-(methylsulfonyl)-1,2,3,6-tetrahydropyridin-4-yl]-7H-pyrrolo[2,3-d]pyrimidine]",> 12500
17,"CCCOc1ccc(F)cc1-c1ncnc2[nH]c(C3=CCN(S(C)(=O)=O)CC3)cc12 [Example 49, 4-(5-fluoro-2-propoxyphenyl)-6-[1-(methylsulfonyl)-1,2,3,6-tetrahydropyridin-4-yl]-7H-pyrrolo[2,3-d]pyrimidine]",1300

# More lines, now with the values ahead:
row,IC50 [nM],SMILES
1,830,"CS(=O)(=O)N1CC=C(c2cc3c(-c4ccc(F)cc4F)ncnc3[nH]2)CC1 [Example 46, 4-(2,4-difluorophenyl)-6-[1-(methylsulfonyl)-1,2,3,6-tetrahydropyridin-4-yl]-7H-pyrrolo[2,3-d]pyrimidine]"
2,2400,"Cn1cc(-c2ncnc3[nH]c(C4=CCN(S(C)(=O)=O)CC4)cc23)cn1 [Example 57, 4-(1-methyl-1H-pyrazol-4-yl)-6-[1-(methylsulfonyl)-1,2,3,6-tetrahydropyridin-4-yl]-7H-pyrrolo[2,3-d]pyrimidine]"
3,1000,"Cc1ccc(F)c(-c2ncnc3[nH]c(C4=CCN(S(C)(=O)=O)CC4)cc23)c1 [Example 50, 4-(2-fluoro-5-methylphenyl)-6-[1-(methylsulfonyl)-1,2,3,6-tetrahydropyridin-4-yl]-7H-pyrrolo[2,3-d]pyrimidine]"
4,11700,"Cc1cc(Cl)cc(-c2ncnc3[nH]c(C4=CCN(S(C)(=O)=O)CC4)cc23)c1F [Example 41, 4-(5-chloro-2-fluoro-3-methylphenyl)-6-[1-(methylsulfonyl)-1,2,3,6-tetrahydropyridin-4-yl]-7H-pyrrolo[2,3-d]pyrimidine]"
5,5000,"CS(=O)(=O)N1CC=C(c2cc3c(N4CCCC4)ncnc3[nH]2)CC1 [Example 62, 6-[1-(methylsulfonyl)-1,2,3,6-tetrahydropyridin-4-yl]-4-(pyrrolidin-1-yl)-7H-pyrrolo[2,3-d]pyrimidine]"
6,1400,"CS(=O)(=O)N1CC=C(c2cc3c(-c4ccccc4C(F)(F)F)ncnc3[nH]2)CC1 [Example 47, 6-[1-(methylsulfonyl)-1,2,3,6-tetrahydropyridin-4-yl]-4-[2-(trifluoromethyl)phenyl]-7H-pyrrolo[2,3-d]pyrimidine]"
7,1300,"CS(=O)(=O)N1CC=C(c2cc3c(N4CCC(F)(F)CC4)ncnc3[nH]2)CC1 [Example 63, 4-(4,4-difluoropiperidin-1-yl)-6-[1-(methylsulfonyl)-1,2,3,6-tetrahydropyridin-4-yl]-7H-pyrrolo[2,3-d]pyrimidine]"
8,2000,"CS(=O)(=O)N1CC=C(c2cc3c(N4CC(F)(F)C4)ncnc3[nH]2)CC1 [Example 64, 4-(3,3-difluoroazetidin-1-yl)-6-[1-(methylsulfonyl)-1,2,3,6-tetrahydropyridin-4-yl]-7H-pyrrolo[2,3-d]pyrimidine]"
9,4000,"CS(=O)(=O)N1CC=C(c2cc3c(N4CCOCC4)ncnc3[nH]2)CC1 [Example 60, 6-[1-(methylsulfonyl)-1,2,3,6-tetrahydropyridin-4-yl]-4-(morpholin-4-yl)-7H-pyrrolo[2,3-d]pyrimidine]"
10,910,"COc1ccncc1-c1ncnc2[nH]c(C3=CCN(S(C)(=O)=O)CC3)cc12 [Example 59, 4-(4-methoxypyridin-3-yl)-6-[1-(methylsulfonyl)-1,2,3,6-tetrahydropyridin-4-yl]-7H-pyrrolo[2,3-d]pyrimidine]"
